Data on 69 compounds can be found in the Kinase Knowledgebase extract (Sharma et al. 2016).

Some results are limits rather than exact numbers.

The assay concerns the target EGFR (human) (UniProt P00533). The following applies: a431.

Sequence of EGFR (human) (P00533 whole entry, looked up): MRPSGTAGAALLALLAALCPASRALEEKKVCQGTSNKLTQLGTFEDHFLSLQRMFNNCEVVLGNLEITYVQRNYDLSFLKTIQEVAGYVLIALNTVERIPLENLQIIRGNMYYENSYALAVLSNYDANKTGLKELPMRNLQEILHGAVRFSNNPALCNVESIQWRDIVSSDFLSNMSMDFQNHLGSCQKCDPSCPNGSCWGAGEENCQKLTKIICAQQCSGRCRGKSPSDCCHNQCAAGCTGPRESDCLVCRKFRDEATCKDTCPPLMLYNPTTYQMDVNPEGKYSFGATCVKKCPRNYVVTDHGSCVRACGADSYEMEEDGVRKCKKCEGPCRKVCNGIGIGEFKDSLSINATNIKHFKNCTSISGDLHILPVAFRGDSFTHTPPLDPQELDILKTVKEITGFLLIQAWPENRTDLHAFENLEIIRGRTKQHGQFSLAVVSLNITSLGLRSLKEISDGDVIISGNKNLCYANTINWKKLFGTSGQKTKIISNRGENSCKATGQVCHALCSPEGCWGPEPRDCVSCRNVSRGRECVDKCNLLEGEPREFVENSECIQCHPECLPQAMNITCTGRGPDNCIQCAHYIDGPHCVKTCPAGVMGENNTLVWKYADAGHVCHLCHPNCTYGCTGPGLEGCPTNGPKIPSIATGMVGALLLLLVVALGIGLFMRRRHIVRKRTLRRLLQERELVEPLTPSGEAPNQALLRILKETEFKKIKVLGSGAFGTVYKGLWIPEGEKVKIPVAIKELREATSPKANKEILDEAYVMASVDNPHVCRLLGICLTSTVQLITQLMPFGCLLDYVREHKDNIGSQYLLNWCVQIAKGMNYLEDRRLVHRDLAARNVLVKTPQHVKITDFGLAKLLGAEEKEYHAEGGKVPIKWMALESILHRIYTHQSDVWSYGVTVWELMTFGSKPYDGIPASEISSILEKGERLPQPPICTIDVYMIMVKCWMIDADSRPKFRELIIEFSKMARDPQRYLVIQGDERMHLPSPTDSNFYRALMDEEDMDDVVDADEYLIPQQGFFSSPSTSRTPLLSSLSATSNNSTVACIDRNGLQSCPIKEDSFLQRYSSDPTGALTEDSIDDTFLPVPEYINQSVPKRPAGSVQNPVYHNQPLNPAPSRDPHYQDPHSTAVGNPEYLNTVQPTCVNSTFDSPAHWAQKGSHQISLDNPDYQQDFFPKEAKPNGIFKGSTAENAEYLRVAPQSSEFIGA

As to `OC[C@H](O)c1ccc2c(c1)sc1ncnc(Nc3ccc(OCc4cccc(F)c4)c(Cl)c3)c12`, the IC50 was at most 5 µM.
To `Clc1cc(Nc2ncnc3sc4cc(CCBr)ccc4c23)ccc1OCc1ccccn1` belongs at most 5 µM.
To `OC[C@H](O)[C@@H](O)c1ccc2c(c1)sc1ncnc(Nc3ccc(OCc4cccc(F)c4)c(Cl)c3)c12` belongs at most 5 µM; to `OCCc1ccc2c(c1)sc1ncnc(Nc3ccc4c(cnn4Cc4ccccn4)c3)c12`, at most 5 µM; to `CN(C)CCNC(=O)Cc1ccc2c(c1)sc1ncnc(Nc3ccc4c(cnn4Cc4cccc(F)c4)c3)c12`, at most 5 µM.
To `COCCN(CCOC)C(=O)Cc1ccc2c(c1)sc1ncnc(Nc3ccc(OCc4ccccn4)c(Cl)c3)c12` belongs at most 5 µM; to `Fc1cccc(COc2ccc(Nc3ncnc4sc5cc(CCN6CCCCC6)ccc5c34)cc2Cl)c1`, at most 5 µM; to `O=C(Cc1ccc2c(c1)sc1ncnc(Nc3ccc(OCc4cccc(F)c4)c(Cl)c3)c12)NCCN1CCOCC1`, at most 5 µM.
In turn, `Fc1cccc(COc2ccc(Nc3ncnc4sc5cc(OCCN6CCCC6)ccc5c34)cc2Cl)c1` displayed an IC50 of at most 5 µM.
For `OC[C@H](O)c1ccc2c(c1)sc1ncnc(Nc3ccc4c(cnn4Cc4cccc(F)c4)c3)c12` the value was at most 5 µM; for `COC(=O)/C=C/c1ccc2c(c1)sc1ncnc(Nc3ccc(OCc4cccc(F)c4)c(Cl)c3)c12`, at most 5 µM; for `COCCN(CCOC)CCc1ccc2c(c1)sc1ncnc(Nc3ccc(OCc4cccc(F)c4)c(Cl)c3)c12`, at most 5 µM.
For `OC[C@@H](O)COc1ccc2c(c1)sc1ncnc(Nc3ccc(OCc4cccc(F)c4)c(Cl)c3)c12`, the IC50 is at most 5 µM.
In turn, `Fc1cccc(COc2ccc(Nc3ncnc4sc5cc(CCN6CCCC6)ccc5c34)cc2Cl)c1` displayed an IC50 of at most 5 µM.
In turn, `COCCNCCc1ccc2c(c1)sc1ncnc(Nc3ccc(OCc4ccccn4)c(Cl)c3)c12` showed an IC50 of at most 5 µM.
Regarding `OCC(O)c1ccc2c(c1)sc1ncnc(Nc3ccc(OCc4cccc(F)c4)c(Cl)c3)c12` (centres undefined), the IC50 is at most 5 µM.
For `O=C(Cc1ccc2c(c1)sc1ncnc(Nc3ccc(OCc4cccc(F)c4)c(Cl)c3)c12)N1CCOCC1` the value was at most 5 µM.
For `CN1CCN(C(=O)Cc2ccc3c(c2)sc2ncnc(Nc4ccc(OCc5cccc(F)c5)c(Cl)c4)c23)CC1` the value was at most 5 µM; for `NS(=O)(=O)OCCc1ccc2c(c1)sc1ncnc(Nc3ccc(OCc4ccccn4)c(Cl)c3)c12`, at most 5 µM; for `O=C(Cc1ccc2c(c1)sc1ncnc(Nc3ccc4c(cnn4Cc4cccc(F)c4)c3)c12)NC1CN2CCC1CC2` (centres undefined), at most 5 µM.
`Fc1cccc(COc2ccc(Nc3ncnc4sc5cc(OCCN6CCOCC6)ccc5c34)cc2Cl)c1` displayed a concentration for half-maximal inhibition (IC50) of at most 5 µM.
The compound `CN1CCN(c2ccc3c(c2)sc2ncnc(Nc4ccc(OCc5ccccn5)c(Cl)c4)c23)CC1` yielded an IC50 of at most 5 µM.
The compound `OCC(O)C(O)c1ccc2c(c1)sc1ncnc(Nc3ccc(OCc4cccc(F)c4)c(Cl)c3)c12` (centres undefined) displayed an IC50 of at most 5 µM.
In turn, `COCCN1CCN(CCc2ccc3c(c2)sc2ncnc(Nc4ccc(OCc5cccc(F)c5)c(Cl)c4)c23)CC1` showed an IC50 of at most 5 µM.
To `CN(C)[C@H]1CCN(C(=O)Cc2ccc3c(c2)sc2ncnc(Nc4ccc5c(cnn5Cc5cccc(F)c5)c4)c23)C1` belongs at most 5 µM; to `COC[C@@H]1CCCN1C(=O)Cc1ccc2c(c1)sc1ncnc(Nc3ccc(OCc4ccccn4)c(Cl)c3)c12`, at most 5 µM; to `Fc1cccc(COc2ccc(Nc3ncnc4sc5cc(OCCCN6CCOCC6)ccc5c34)cc2Cl)c1`, at most 5 µM.
To `OCCc1ccc2c(c1)sc1ncnc(Nc3ccc(OCc4cccc(F)c4)c(Cl)c3)c12` belongs at most 5 µM.
Consider `O=C(/C=C/c1ccc2c(c1)sc1ncnc(Nc3ccc(OCc4cccc(F)c4)c(Cl)c3)c12)N1CCOCC1`, for which the concentration for half-maximal inhibition (IC50) was at most 5 µM.
`OCCc1ccc2c(c1)sc1ncnc(Nc3ccc(OCc4ccccn4)c(Cl)c3)c12` had an IC50 of at most 5 µM.
In turn, `OC[C@H](O)COc1ccc2c(c1)sc1ncnc(Nc3ccc(OCc4ccccn4)c(Cl)c3)c12` gave an IC50 of at most 5 µM.
Regarding `O=C(Cc1ccc2c(c1)sc1ncnc(Nc3ccc(OCc4cccc(F)c4)c(Cl)c3)c12)NCCOCCO`, the IC50 was at most 5 µM.
To `OCC(O)c1ccc2c(c1)sc1ncnc(Nc3ccc(OCc4ccccn4)c(Cl)c3)c12` (centres undefined) belongs at most 5 µM.
To `OCCN(CCO)CCc1ccc2c(c1)sc1ncnc(Nc3ccc(OCc4cccc(F)c4)c(Cl)c3)c12` belongs at most 5 µM.
`Fc1cccc(COc2ccc(Nc3ncnc4sc5cc(CCBr)ccc5c34)cc2Cl)c1` came in with an IC50 of at most 5 µM.
Compound `COC[C@H]1CCCN1CCc1ccc2c(c1)sc1ncnc(Nc3ccc(OCc4cccc(F)c4)c(Cl)c3)c12` displayed a 50% inhibitory concentration (IC50) of at most 5 µM.
As for `Fc1cccc(Cn2ncc3cc(Nc4ncnc5sc6cc(CCN7CCOCC7)ccc6c45)ccc32)c1`, the half-maximal inhibitory concentration (IC50) was at most 5 µM.
With `CN1CCN(C(=O)Cc2ccc3c(c2)sc2ncnc(Nc4ccc(OCc5cscn5)c(Cl)c4)c23)CC1`, the IC50 was at most 5 µM.
For `OC[C@@H](O)c1ccc2c(c1)sc1ncnc(Nc3ccc(OCc4cccc(F)c4)c(Cl)c3)c12` the value was at most 5 µM; for `O=C(Cc1ccc2c(c1)sc1ncnc(Nc3ccc(OCc4cccc(F)c4)c(Cl)c3)c12)N1CCNCC1`, at most 5 µM; for `CN(C)[C@H]1CCN(C(=O)/C=C/c2ccc3c(c2)sc2ncnc(Nc4ccc(OCc5cccc(F)c5)c(Cl)c4)c23)C1`, at most 5 µM.
The compound `CS(=O)(=O)CCNC(=O)CCc1ccc2c(c1)sc1ncnc(Nc3ccc(OCc4cccc(F)c4)c(Cl)c3)c12` had a half-inhibitory concentration (IC50) of at most 5 µM.
To `Fc1cccc(COc2ccc(Nc3ncnc4sc5cc(CCN6CCNCC6)ccc5c34)cc2Cl)c1` belongs at most 5 µM; to `CN(C)[C@H]1CCN(CCc2ccc3c(c2)sc2ncnc(Nc4ccc(OCc5cccc(F)c5)c(Cl)c4)c23)C1`, at most 5 µM.
In the case of `OCC(CO)c1ccc2c(c1)sc1ncnc(Nc3ccc(OCc4cccc(F)c4)c(Cl)c3)c12`, the IC50 is at most 5 µM.
To `CCNCCc1ccc2c(c1)sc1ncnc(Nc3ccc(OCc4ccccn4)c(Cl)c3)c12` belongs at most 5 µM; to `CS(=O)(=O)CCNCCc1ccc2c(c1)sc1ncnc(Nc3ccc(OCc4ccccn4)c(Cl)c3)c12`, at most 5 µM; to `CCN1CCN(C(=O)/C=C/c2ccc3c(c2)sc2ncnc(Nc4ccc(OCc5cccc(F)c5)c(Cl)c4)c23)CC1`, at most 5 µM.
For `CN(C)CCNC(=O)CCc1ccc2c(c1)sc1ncnc(Nc3ccc(OCc4cccc(F)c4)c(Cl)c3)c12` the value was at most 5 µM; for `CN(C)[C@H]1CCN(C(=O)Cc2ccc3c(c2)sc2ncnc(Nc4ccc(OCc5cscn5)c(Cl)c4)c23)C1`, at most 5 µM; for `CN(C)[C@H]1CCN(C(=O)CCc2ccc3c(c2)sc2ncnc(Nc4ccc(OCc5cccc(F)c5)c(Cl)c4)c23)C1`, at most 5 µM.
To `OC[C@@H](O)c1ccc2c(c1)sc1ncnc(Nc3ccc4c(cnn4Cc4cccc(F)c4)c3)c12` belongs at most 5 µM.
Take `CN1CCN(CCc2ccc3c(c2)sc2ncnc(Nc4ccc5c(cnn5Cc5cccc(F)c5)c4)c23)CC1`: the IC50 is at most 5 µM.
To `Fc1cccc(COc2ccc(Nc3ncnc4sc5cc(CCN6CCSCC6)ccc5c34)cc2Cl)c1` belongs at most 5 µM; to `OC[C@@H](O)[C@H](O)c1ccc2c(c1)sc1ncnc(Nc3ccc(OCc4cccc(F)c4)c(Cl)c3)c12`, at most 5 µM.
To `COCCNCCc1ccc2c(c1)sc1ncnc(Nc3ccc(OCc4cccc(F)c4)c(Cl)c3)c12` belongs at most 5 µM; to `CN1CCN(C(=O)/C=C/c2ccc3c(c2)sc2ncnc(Nc4ccc(OCc5cccc(F)c5)c(Cl)c4)c23)CC1`, at most 5 µM.
To `OCC(O)c1ccc2c(c1)sc1ncnc(Nc3ccc4c(cnn4Cc4cccc(F)c4)c3)c12` (centres undefined) belongs at most 5 µM.
Turning to `CN1CCN(C(=O)Cc2ccc3c(c2)sc2ncnc(Nc4ccc5c(cnn5Cc5cccc(F)c5)c4)c23)CC1`, the concentration for half-maximal inhibition (IC50) was at most 5 µM.
In turn, `CN1CCN(CCc2ccc3c(c2)sc2ncnc(Nc4ccc(OCc5ccccn5)c(Cl)c4)c23)CC1` showed a half-inhibitory concentration (IC50) of at most 5 µM.
Regarding `OCCc1ccc2c(c1)sc1ncnc(Nc3ccc4c(cnn4Cc4cccc(F)c4)c3)c12`, the IC50 was at most 5 µM.
To `OC[C@H](O)COc1ccc2c(c1)sc1ncnc(Nc3ccc(OCc4cccc(F)c4)c(Cl)c3)c12` belongs at most 5 µM; to `CS(=O)(=O)CCNC(=O)Cc1ccc2c(c1)sc1ncnc(Nc3ccc4c(cnn4Cc4cccc(F)c4)c3)c12`, at most 5 µM.
To `Fc1cccc(Cn2ncc3cc(Nc4ncnc5sc6cc(N7CCNCC7)ccc6c45)ccc32)c1` belongs at most 5 µM.
Regarding `CN(C)[C@@H]1CCN(C(=O)Cc2ccc3c(c2)sc2ncnc(Nc4ccc(OCc5cscn5)c(Cl)c4)c23)C1`, the IC50 is at most 5 µM.
In the case of `OCCNCCc1ccc2c(c1)sc1ncnc(Nc3ccc(OCc4cccc(F)c4)c(Cl)c3)c12`, the IC50 was at most 5 µM.
On to `CO[C@H]1CCN(CCc2ccc3c(c2)sc2ncnc(Nc4ccc(OCc5cccc(F)c5)c(Cl)c4)c23)C1`, for which the IC50 was at most 5 µM.
To `CN1CCN(CCc2ccc3c(c2)sc2ncnc(Nc4ccc(OCc5cccc(F)c5)c(Cl)c4)c23)CC1` belongs at most 5 µM; to `O=C(Cc1ccc2c(c1)sc1ncnc(Nc3ccc(OCc4ccccn4)c(Cl)c3)c12)N1CCC[C@@H]1CO`, at most 5 µM.

Broadly, the IC50 is the concentration needed to halve the response being measured.
